The values that follow come from US20100048950A1 (BOEHRINGER INGELHEIM INTERNATIONAL GMBH, priority 2007, published 2010).

Structures are written as SMILES. Bounds are passed on as bounds.

This experiment deals with T1, human glucocorticoid receptor (GR) complex (Homo sapiens, UniProt P04150).
T1 construct: made in house; host or cells: insect expression system (baculovirus lysate)
T1 sequence (P04150 1-777): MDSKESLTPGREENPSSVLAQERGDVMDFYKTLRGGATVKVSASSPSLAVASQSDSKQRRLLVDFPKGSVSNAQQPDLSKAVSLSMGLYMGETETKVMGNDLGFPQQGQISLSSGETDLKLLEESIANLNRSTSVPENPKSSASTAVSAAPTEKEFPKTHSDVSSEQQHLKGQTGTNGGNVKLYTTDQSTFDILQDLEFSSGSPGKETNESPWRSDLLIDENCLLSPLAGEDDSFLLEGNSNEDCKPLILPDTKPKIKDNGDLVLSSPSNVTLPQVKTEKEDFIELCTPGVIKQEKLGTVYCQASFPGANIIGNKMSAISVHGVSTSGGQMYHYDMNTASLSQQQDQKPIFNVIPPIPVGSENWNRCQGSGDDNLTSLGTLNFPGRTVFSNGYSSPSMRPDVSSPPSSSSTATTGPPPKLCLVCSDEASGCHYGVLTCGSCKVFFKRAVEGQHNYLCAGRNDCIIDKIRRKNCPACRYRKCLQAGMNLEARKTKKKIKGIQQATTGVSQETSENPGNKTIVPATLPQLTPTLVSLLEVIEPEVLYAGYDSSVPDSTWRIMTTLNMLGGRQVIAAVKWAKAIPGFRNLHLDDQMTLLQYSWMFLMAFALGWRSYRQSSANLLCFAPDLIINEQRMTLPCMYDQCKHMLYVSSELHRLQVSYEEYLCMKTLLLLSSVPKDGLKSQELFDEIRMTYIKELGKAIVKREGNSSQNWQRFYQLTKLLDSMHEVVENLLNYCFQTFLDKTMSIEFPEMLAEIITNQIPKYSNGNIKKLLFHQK
Description: Glucocorticoid receptor competitive binding assay (fluorescence polarization). Particulars: competition with TAMRA-labeled dexamethasone, read-out: potent activity (IC50) in the GR binding assay. As to the method:
Compounds of the invention were evaluated for binding to the steroid receptor by a fluorescence polarization competitive binding assay. Detailed descriptions for preparation of recombinant glucocorticoid receptor (GR) complex used in the assay is described in U.S. Patent Application Publication No. US 2003/0017503, filed May 20, 2002, and incorporated herein by reference in its entirety. Preparation of the tetramethylrhodamine (TAMRA)-labeled dexamethasone probe was accomplished using a standard literature procedure (M. Pons et al., J. Steroid Biochem., 1985, 22, pp. 267-273).
The affinity of the probe for the steroid receptor was then determined in a titration experiment. The fluorescence polarization value of the probe in assay buffer was measured on an SLM-8100 fluorometer using the excitation and emission maximum values described above. Aliquots of expression vector lysate were added and fluorescence polarization was measured after each addition until no further change in polarization value was observed. Non-linear least squares regression analysis was used to calculate the dissociation constant of the probe from the polarization values obtained for lysate binding to the probe.
This assay uses fluorescence polarization (FP) to quantitate the ability of test compounds to compete with tetramethylrhodamine (TAMRA)-labeled dexamethasone for binding to a human glucocorticoid receptor (GR) complex prepared from an insect expression system. The assay buffer was: 10 mM TES, 50 mM KCl, 20 mM Na2MoO4.2H2O, 1.5 mM EDTA, 0.04% w/v CHAPS, 10% v/v glycerol, 1 mM dithiothreitol, pH 7.4. Test compounds were dissolved to 1 mM in neat DMSO and then further diluted to 10× assay concentration in assay buffer supplemented with 10% v/v DMSO. Test compounds were serially diluted at 10× assay concentrations in 10% DMSO-containing buffer in 96-well polypropylene plates. Binding reaction mixtures were prepared in 96-well black Dynex microtiter plates by sequential addition of the following assay components to each well: 15 μL of 10× test compound solution, 85 μL of GR-containing baculovirus lysate diluted 1:170 in assay buffer, and 50 μL of 15 nM TAMRA-labeled dexamethasone. Positive controls were reaction mixtures containing no test compound; negative controls (blanks) were reaction mixtures containing 0.7 μM to 2 μM dexamethasone. The binding reactions were incubated for 1 hour at room temperature and then read for fluorescence polarization in the LJL Analyst set to 550 nm excitation and 580 nm emission, with the Rhodamine 561 dichroic mirror installed. IC50 values were determined by iterative non-linear curve fitting of the FP signal data to a 4-parameter logistic equation.

Broadly, the IC50 is the point on the concentration scale where inhibition reaches its midpoint. `Cc1cc(C)c(S(=O)(=O)NC(COc2ccc3c(c2)CCC3)C(F)(F)F)c(C)c1` (stereo not drawn) [2,4,6-Trimethyl-N-[2,2,2-trifluoro-1-(indan-5-yloxymethyl)ethyl]benzenesulfonamide]: the IC50 is not above 100 nM.

In the case of `Cc1cccc(NCC(NS(=O)(=O)c2c(C)cc(C)cc2C)C(F)(F)F)c1` (stereo not drawn) [2,4,6-Trimethyl-N-[2,2,2-trifluoro-1-(m-tolylaminomethyl)ethyl]benzenesulfonamide], the IC50 is not above 100 nM.

For the compound `Cc1cc(C)c(S(=O)(=O)NC(COc2cccc3ccccc23)C(F)(F)F)c(C)c1` (stereo not drawn) [2,4,6-Trimethyl-N-[2,2,2-trifluoro-1-(naphthalen-1-yloxymethyl)ethyl]benzenesulfonamide], the concentration for half-maximal inhibition (IC50) is not above 100 nM.

Regarding `Cc1ccc(NCC(NS(=O)(=O)c2c(C)cc(C)cc2C)C(F)(F)F)cc1` (stereo not drawn) [2,4,6-Trimethyl-N-[2,2,2-trifluoro-1-(p-tolylaminomethyl)ethyl]benzenesulfonamide], the half-maximal inhibitory concentration (IC50) was not above 100 nM.

Consider `Cc1cc(C)c(S(=O)(=O)NC(CNc2c(Cl)cc(Cl)cc2Cl)C(F)(F)F)c(C)c1` (stereo not drawn) [2,4,6-Trimethyl-N-{2,2,2-trifluoro-1-[(2,4,6-trichlorophenylamino)methyl]ethyl}benzenesulfonamide], for which the half-maximal inhibitory concentration (IC50) was not above 100 nM.

Consider `Cc1cc(C)c(S(=O)(=O)NC(CNc2c(F)cc(F)cc2F)C(F)(F)F)c(C)c1` (stereo not drawn) [2,4,6-Trimethyl-N-{2,2,2-trifluoro-1-[(2,4,6-trifluorophenylamino)methyl]ethyl}benzenesulfonamide], for which the 50% inhibitory concentration (IC50) was not above 100 nM.

With `Cc1cc(C)c(S(=O)(=O)NC(CNc2ccc(C)cc2F)C(F)(F)F)c(C)c1` (stereo not drawn) [2,4,6-Trimethyl-N-{2,2,2-trifluoro-1-[(2-fluoro-4-methylphenylamino)methyl]ethyl}benzenesulfonamide], the IC50 was not above 100 nM.

With `COc1ccc(C(F)(F)F)cc1NCC(NS(=O)(=O)c1c(C)cc(C)cc1C)C(F)(F)F` (stereo not drawn) [2,4,6-Trimethyl-N-{2,2,2-trifluoro-1-[(2-methoxy-5-trifluoromethylphenylamino)methyl]ethyl}benzenesulfonamide], the 50% inhibitory concentration (IC50) is not above 100 nM.

`Cc1cc(C)c(S(=O)(=O)NC(CNc2ccccc2OC(F)(F)F)C(F)(F)F)c(C)c1` (stereo not drawn) [2,4,6-Trimethyl-N-{2,2,2-trifluoro-1-[(2-trifluoromethoxyphenylamino)methyl]ethyl}benzenesulfonamide]: the half-inhibitory concentration (IC50) was not above 100 nM.

Take `COc1cc(NCC(NS(=O)(=O)c2c(C)cc(C)cc2C)C(F)(F)F)cc(C(F)(F)F)c1` (stereo not drawn) [2,4,6-Trimethyl-N-{2,2,2-trifluoro-1-[(3-methoxy-5-trifluoromethylphenylamino)methyl]ethyl}benzenesulfonamide]: the half-maximal inhibitory concentration (IC50) was not above 100 nM.

As for `CSc1cccc(NCC(NS(=O)(=O)c2c(C)cc(C)cc2C)C(F)(F)F)c1` (stereo not drawn) [2,4,6-Trimethyl-N-{2,2,2-trifluoro-1-[(3-methylsulfanylphenylamino)methyl]ethyl}benzenesulfonamide], the half-inhibitory concentration (IC50) is not above 100 nM.

As for `Cc1cc(C)c(S(=O)(=O)NC(CNc2cccc(-c3cnco3)c2)C(F)(F)F)c(C)c1` (stereo not drawn) [2,4,6-Trimethyl-N-{2,2,2-trifluoro-1-[(3-oxazol-5-ylphenylamino)methyl]ethyl}benzenesulfonamide], the IC50 is not above 100 nM.

As to `Cc1cc(C)c(S(=O)(=O)NC(CNc2cccc(C(F)(F)F)c2)C(F)(F)F)c(C)c1` (stereo not drawn) [2,4,6-Trimethyl-N-{2,2,2-trifluoro-1-[(3-trifluoromethylphenylamino)methyl]ethyl}benzenesulfonamide], the half-maximal inhibitory concentration (IC50) was not above 100 nM.

Regarding `COc1ccc(NCC(NS(=O)(=O)c2c(C)cc(C)cc2C)C(F)(F)F)c(C)c1` (stereo not drawn) [2,4,6-Trimethyl-N-{2,2,2-trifluoro-1-[(4-methoxy-2-methylphenylamino)methyl]ethyl}benzenesulfonamide], the IC50 is not above 100 nM.

As to `Cc1cc(C)c(S(=O)(=O)NC(CNc2cccc3c2CCCC3)C(F)(F)F)c(C)c1` (stereo not drawn) [2,4,6-Trimethyl-N-{2,2,2-trifluoro-1-[(5,6,7,8-tetrahydronaphthalen-1-ylamino)methyl]ethyl}benzenesulfonamide], the IC50 is not above 100 nM.

Turning to `Cc1cc(C)c(S(=O)(=O)NC(CN(C)c2ccccc2)C(F)(F)F)c(C)c1` (stereo not drawn) [2,4,6-Trimethyl-N-{2,2,2-trifluoro-1-[(methylphenylamino)methyl]ethyl}benzenesulfonamide], the IC50 is not above 100 nM.

`CC[C@@H](CNc1cccc2ccccc12)NS(=O)(=O)c1c(C)cc(C)cc1C` [2,4,6-Trimethyl-N—[(S)-1-(naphthalen-1-ylaminomethyl)propyl]benzenesulfonamide]: the IC50 is not above 100 nM.

With `Cc1ccc(SCC(NS(=O)(=O)c2c(N)cc(Cl)cc2Cl)C(F)(F)F)cc1` (stereo not drawn) [2-Amino-4,6-dichloro-N-(2,2,2-trifluoro-1-p-tolylsulfanylmethylethyl)benzenesulfonamide], the IC50 was not above 100 nM.

As for `COC(=O)c1ccccc1NCC(NS(=O)(=O)c1c(C)cc(C)cc1C)C(F)(F)F` (stereo not drawn) [2-[3,3,3-Trifluoro-2-(2,4,6-trimethylbenzenesulfonylamino)propylamino]benzoic acid methyl ester], the half-inhibitory concentration (IC50) is not above 100 nM.

For the compound `COC(=O)c1ccccc1SCC(NS(=O)(=O)c1c(C)cc(C)cc1C)C(F)(F)F` (stereo not drawn) [2-[3,3,3-Trifluoro-2-(2,4,6-trimethylbenzenesulfonylamino)propylsulfanyl]benzoic acid methyl ester], the IC50 is not above 100 nM.

For the compound `COC(=O)c1ccccc1N(C)CC(NS(=O)(=O)c1c(C)cc(C)cc1C)C(F)(F)F` (stereo not drawn) [2-{Methyl-[3,3,3-trifluoro-2-(2,4,6-trimethylbenzenesulfonylamino)propyl]amino}benzoic acid methyl ester], the IC50 was not above 100 nM.

`CCOC(=O)c1ccc(OCC(NS(=O)(=O)c2c(C)cc(C)cc2C)C(F)(F)F)c(OC)c1` (stereo not drawn) [3-Methoxy-4-[3,3,3-trifluoro-2-(2,4,6-trimethylbenzenesulfonylamino)propoxy]benzoic acid ethyl ester]: the IC50 was not above 100 nM.

As to `COC(=O)c1cccc(NCC(NS(=O)(=O)c2c(C)cc(C)cc2C)C(F)(F)F)c1` (stereo not drawn) [3-[3,3,3-Trifluoro-2-(2,4,6-trimethylbenzenesulfonylamino)propylamino]benzoic acid methyl ester], the half-maximal inhibitory concentration (IC50) was not above 100 nM.

With `Cc1cc(C)c(S(=O)(=O)NC(CN(CCC#N)c2ccccc2)C(F)(F)F)c(C)c1` (stereo not drawn) [N-(1-{[(2-Cyanoethyl)phenylamino]methyl}-2,2,2-trifluoroethyl)-2,4,6-trimethylbenzenesulfonamide], the IC50 was not above 100 nM.

Regarding `COc1ccc(N(Cc2ccccc2)CC(NS(=O)(=O)c2c(C)cc(C)cc2C)C(F)(F)F)cc1` (stereo not drawn) [N-(1-{[Benzyl-(4-methoxyphenyl)amino]methyl}-2,2,2-trifluoroethyl)-2,4,6-trimethylbenzenesulfonamide], the IC50 is not above 100 nM.

`Cc1cc(C)c(S(=O)(=O)NC(COc2ccc(Cl)cc2Cl)C(F)(F)F)c(C)c1` (stereo not drawn) [N-[1-(2,4-Dichlorophenoxymethyl)-2,2,2-trifluoroethyl]-2,4,6-trimethylbenzenesulfonamide]: the IC50 was not above 100 nM.

As to `Cc1cc(C)c(S(=O)(=O)NC(CSc2ccc(Cl)cc2Cl)C(F)(F)F)c(C)c1` (stereo not drawn) [N-[1-(2,4-Dichlorophenylsulfanylmethyl)-2,2,2-trifluoroethyl]-2,4,6-trimethylbenzenesulfonamide], the IC50 was not above 100 nM.
